Where no end group is shown, it is not given here.
How the values were obtained:
Assay type in all cases: cell-based, rat
PLCβ1 gene expression = PLCβ1 gene expression by real-time RT-PCR; conditions: 25 µM
Method: (§1) Total RNA was extracted using an ABI 6100 Nucleic Acid PrepStation according to the manufacturer’s protocol (Applied Biosystems Inc., Foster City, CA, USA). Total RNA from cells was isolated and stored at −80 °C. The quality of isolated RNA was estimated by the ratio A260/A280 and was in the range of 1.9–2.1. RNA integrity was evaluated by agarose gel electrophoresis according to MIQE guidelines using the “bleach gel” method. RNA concentrations were determined from the A260. One microgram of total RNA was reverse transcribed using Applied Biosystems High-Capacity cDNA Archive Kit.
(§2) To assess relative gene expression in neurons, quantitative real-time RT-PCR analysis was performed with an Applied Biosystems Prism 7500 Fast Sequence Detection System using TaqMan® universal PCR master mix according to the manufacturer’s specifications. […] Levels of RNA expression were determined using the 7500 Fast System SDS software version 1.3.1 (Applied Biosystems) according to the 2^−ΔΔCt method. […] The results from three independent repeat assays, performed in different plates each using different cDNA’s from the cultures analyzed, were averaged to produce a single mean quantity value for each mRNA.

CREM gene expression = CREM gene expression by real-time PCR; conditions: 25 µM, 24 or 48 h
Method: as §1, §2

mGluR5 = assay: Extracellular immunostaining of mGluR5 in non-permeabilized neurons; conditions: 25 µM, 24 h, whole-cell immunostaining
Method: The quantitative analysis of the levels of Group I mGluR and mGluR2,3 at the plasma membrane was performed with extracellular targeted polyclonal antibodies (mGluR1, mGluR5 and mGluR2,3, Alomone Labs, Jerusalem, Israel), as previously described with minor modifications. Briefly, after 2 weeks in culture, the culture medium was removed and cells washed with Locke Buffer (LB, pH 7.4). Cells were then fixed with 4% paraformaldehyde for 10 min at room temperature and washed with three 10-min intervals with LB.
Nonspecific staining was suppressed by blocking with 3% normal goat serum in LB for 60 min. […]
To evaluate the degree of fluorescence intensity in cortical neurons, fluorescence was measured to estimate the protein expression in the different experimental conditions analyzed. Images (448.6 µm × 335.08 µm) obtained with a digital camera (Leica DFC350FX R2), attached to a Leica DMI6000B (Leica Microsystems, Wetzlar, Germany) fluorescent microscope, were used for quantification (20x HCX PL FLUOTAR 0.4 dry objective). […] Fluorescence intensity was estimated by averaging mean grey values. […] Data were normalized to the total number of cells in the analyzed fields. The mean fluorescence background, calculated in the unstained regions between neurons, was subtracted from the fluorescence intensity of each data point. […]

Sequence: GSNKGAIIGLM [Aβ25-35]
- PLCβ1 gene expression decrease over control value (PLCβ1 gene expression; 24 h): 28%
- PLCβ1 gene expression decrease over control value (PLCβ1 gene expression; 48 h): 33%
- CREM gene expression (CREM gene expression): decrease
- mGluR5 density at the membrane level vs control value (mGluR5): twice over control value

From publication PMC8234864, “Early Effects of the Soluble Amyloid β25-35 Peptide in Rat Cortical Neurons: Modulation of Signal Transduction Mediated by Adenosine and Group I Metabotropic Glutamate Receptors” (International Journal of Molecular Sciences, 2021)
